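96-well plates; 48 h exposure; 5 concentrations. Endpoints by linear interpolation between flanking doses. Not reached: highest tested concentration assigned. GI50: concentration for 50% inhibition of growth.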 Calls of active or inactive are those of the source. Rule as the data show it: active = GI50 up to about 1.1 µM and inactive = higher.
Assays:
Experiment in all cases: growth of human tumour cells (NCI), 48 h
NCI-H23 = tested on: NCI-H23
DU-145 = tested on: DU-145
PC-3 = tested on: PC-3
HOP-62 = tested on: HOP-62
A498 = tested on: A498
SNB-19 = tested on: SNB-19
RPMI-8226 = tested on: RPMI-8226
HT-29 = tested on: HT-29
NCI/ADR-RES = tested on: NCI/ADR-RES
RXF 393 = tested on: RXF 393
TK-10 = tested on: TK-10
MOLT-4 = tested on: MOLT-4
COLO 205 = tested on: COLO 205
IGROV-1 = tested on: IGROV-1
OVCAR-4 = tested on: OVCAR-4
BT-549 = tested on: BT-549
SNB-75 = tested on: SNB-75
HCC 2998 = tested on: HCC 2998
SR = tested on: SR

Measured: GI50

Cc1ccc2c(=O)c(-c3nnsn3)c[nH]c2n1
inactive: NCI-H23 > 100 µM | DU-145 > 100 µM | PC-3 > 100 µM | HOP-62 > 100 µM | A498 > 100 µM | SNB-19 > 100 µM | RPMI-8226 > 100 µM | HT-29 > 100 µM | NCI/ADR-RES > 100 µM | RXF 393 > 100 µM | TK-10 > 100 µM | MOLT-4 > 100 µM | COLO 205 > 100 µM | IGROV-1 > 100 µM | OVCAR-4 > 100 µM | BT-549 > 100 µM

C[n+]1c2ccccc2c(C(=O)Nc2ccc(S(=O)(=O)Nc3ncccn3)cc2)c2ccccc21
inactive: NCI-H23 > 100 µM | DU-145 > 100 µM | PC-3 57 µM | HOP-62 > 100 µM | SNB-19 > 100 µM | RPMI-8226 > 100 µM | HT-29 > 100 µM | SNB-75 72.8 µM | NCI/ADR-RES 32.5 µM | TK-10 > 100 µM | MOLT-4 25.8 µM | COLO 205 > 100 µM | IGROV-1 > 100 µM | OVCAR-4 > 100 µM | HCC 2998 > 100 µM | SR > 100 µM | BT-549 45.1 µM

OC(c1cc(-c2ccc(Cl)cc2)nc2ccccc12)C1CCCCN1 (configuration not stated)
active: RXF 393 0.368 µM
inactive: NCI-H23 2.15 µM | DU-145 1.74 µM | PC-3 1.97 µM | HOP-62 1.61 µM | A498 1.82 µM | SNB-19 3.3 µM | RPMI-8226 1.37 µM | HT-29 1.9 µM | SNB-75 2.43 µM | NCI/ADR-RES 2.38 µM | TK-10 4.32 µM | MOLT-4 2.37 µM | COLO 205 1.73 µM | IGROV-1 1.76 µM | OVCAR-4 2.28 µM | HCC 2998 2.08 µM | BT-549 5.09 µM

CC(=O)O[C@@H]1[C@@H](O)C2=C3[C@]4(C)[C@@H]1C(C)(C)C(=O)C[C@@H]4[C@]3(O)[C@H](OC(C)=O)[C@@]1(C[C@@H]1C)C2=O
inactive: NCI-H23 29.3 µM | DU-145 17.3 µM | PC-3 19.6 µM | A498 23.4 µM | SNB-19 21 µM | RPMI-8226 6.7 µM | SNB-75 21.8 µM | NCI/ADR-RES 23.4 µM | TK-10 14.2 µM | MOLT-4 26.6 µM | COLO 205 18.4 µM | IGROV-1 15.4 µM | OVCAR-4 19.5 µM | HCC 2998 15.4 µM | BT-549 16.1 µM

CCSC1=N/C(=C\c2ccccc2O)C(Nc2ccc(C)cc2)=N1
inactive: NCI-H23 56 µM | DU-145 90.2 µM | PC-3 25.9 µM | HOP-62 78.2 µM | A498 > 100 µM | SNB-19 45.8 µM | RPMI-8226 > 100 µM | HT-29 > 100 µM | SNB-75 46.1 µM | NCI/ADR-RES 56 µM | RXF 393 75.2 µM | TK-10 > 100 µM | MOLT-4 29.2 µM | COLO 205 > 100 µM | IGROV-1 32.8 µM | BT-549 > 100 µM

Cc1ccc2c(c1)CC1(C2=O)[C@H](c2ccccc2)C2C(=O)c3ccc(C)cc3C2[C@H]1c1ccccc1 (some centres not stated)
inactive: NCI-H23 > 100 µM | DU-145 > 100 µM | PC-3 37.8 µM | HOP-62 > 100 µM | A498 > 100 µM | SNB-19 > 100 µM | HT-29 > 100 µM | SNB-75 > 100 µM | RXF 393 > 100 µM | TK-10 > 100 µM | MOLT-4 43.8 µM | COLO 205 > 100 µM | IGROV-1 > 100 µM | OVCAR-4 > 100 µM | HCC 2998 43 µM | SR 36.9 µM | BT-549 > 100 µM

O=C1CCCCCCCCCCC1CN(Cc1ccccc1)Cc1ccccc1 (configuration not stated)
inactive: NCI-H23 32.2 µM | DU-145 59 µM | PC-3 30.9 µM | HOP-62 > 100 µM | SNB-19 34.9 µM | RPMI-8226 22.2 µM | SNB-75 2.84 µM | RXF 393 15.4 µM | TK-10 > 100 µM | MOLT-4 17.3 µM | COLO 205 > 100 µM | IGROV-1 > 100 µM | OVCAR-4 > 100 µM | HCC 2998 28.8 µM | SR 35.5 µM | BT-549 50.7 µM

C=C1C(=O)OC2/C=C(/CO)C3(O)CC(O)C(C)(CC(OC(=O)/C(C)=C/C)C12)O3 (configuration not stated)
inactive: NCI-H23 13.6 µM | DU-145 18.5 µM | PC-3 26.3 µM | HOP-62 49.3 µM | A498 20.9 µM | SNB-19 36.5 µM | RPMI-8226 2.51 µM | HT-29 8.09 µM | SNB-75 39.2 µM | RXF 393 2.81 µM | TK-10 11.9 µM | MOLT-4 2.47 µM | COLO 205 4.73 µM | IGROV-1 17.2 µM | OVCAR-4 22.3 µM | HCC 2998 10.6 µM | SR 4.57 µM | BT-549 4.52 µM

Cc1nc(-c2ccccc2)c(-c2ccccc2)s1
inactive: NCI-H23 28.1 µM | DU-145 32 µM | PC-3 14.2 µM | HOP-62 38 µM | A498 17.6 µM | SNB-19 31 µM | RPMI-8226 14.3 µM | HT-29 17.9 µM | SNB-75 23.4 µM | NCI/ADR-RES 24.2 µM | RXF 393 19.4 µM | TK-10 19.7 µM | MOLT-4 17.6 µM | COLO 205 18.3 µM | IGROV-1 18.6 µM | OVCAR-4 19.6 µM | HCC 2998 12.7 µM | BT-549 23.9 µM

CCN(CC)CCSc1c(C(C)=O)c(=O)n(-c2ccccc2)c(=S)n1-c1ccccc1
inactive: NCI-H23 14.7 µM | DU-145 3.08 µM | PC-3 4.04 µM | HOP-62 18.9 µM | A498 19.1 µM | SNB-19 21.1 µM | RPMI-8226 2.13 µM | HT-29 16.7 µM | SNB-75 33.3 µM | NCI/ADR-RES 22.2 µM | RXF 393 1.9 µM | TK-10 5.47 µM | MOLT-4 2.77 µM | COLO 205 1.8 µM | IGROV-1 13 µM | OVCAR-4 9.1 µM | HCC 2998 11.9 µM | BT-549 15.5 µM

COC(=O)/C=C(\S/C=C(/c1ccccc1)N1CCn2c(C(=O)c3ccccc3)c(C(=O)OC)c(C(=O)OC)c21)C(=O)OC
inactive: NCI-H23 3.3 µM | PC-3 6.25 µM | HOP-62 2.69 µM | A498 > 10 µM | SNB-19 > 10 µM | RPMI-8226 2.43 µM | HT-29 2.77 µM | SNB-75 > 10 µM | NCI/ADR-RES 3.52 µM | RXF 393 2.67 µM | TK-10 2.63 µM | MOLT-4 1.79 µM | COLO 205 1.99 µM | IGROV-1 > 10 µM | OVCAR-4 2.81 µM | HCC 2998 > 10 µM | SR 2.61 µM | BT-549 3.83 µM

N=c1sc(N2CCOCC2)nn1CC(=O)c1ccccc1
inactive: NCI-H23 > 100 µM | DU-145 > 100 µM | PC-3 96.8 µM | HOP-62 > 100 µM | SNB-19 > 100 µM | RPMI-8226 > 100 µM | HT-29 > 100 µM | SNB-75 > 100 µM | NCI/ADR-RES > 100 µM | RXF 393 > 100 µM | TK-10 > 100 µM | MOLT-4 > 100 µM | COLO 205 > 100 µM | IGROV-1 > 100 µM | OVCAR-4 > 100 µM | HCC 2998 > 100 µM | BT-549 > 100 µM

O=C(O)CCCOc1cc(-c2ccccc2F)nc2cc3c(cc12)OCO3
inactive: NCI-H23 44.9 µM | DU-145 5.75 µM | PC-3 3 µM | HOP-62 4.01 µM | RPMI-8226 3.73 µM | HT-29 4.54 µM | SNB-75 6.56 µM | NCI/ADR-RES 4.65 µM | TK-10 > 100 µM | MOLT-4 5.9 µM | COLO 205 3.47 µM | IGROV-1 2.58 µM | OVCAR-4 45.9 µM | HCC 2998 46.1 µM | SR 3.93 µM | BT-549 29.8 µM

Cc1n[n+](CC(=O)c2ccccc2)c2sc(N)nn12
inactive: NCI-H23 > 100 µM | DU-145 > 100 µM | PC-3 > 100 µM | HOP-62 > 100 µM | A498 > 100 µM | SNB-19 > 100 µM | RPMI-8226 > 100 µM | HT-29 > 100 µM | SNB-75 > 100 µM | NCI/ADR-RES > 100 µM | RXF 393 > 100 µM | TK-10 > 100 µM | MOLT-4 > 100 µM | COLO 205 > 100 µM | IGROV-1 > 100 µM | OVCAR-4 > 100 µM | BT-549 > 100 µM

COc1ccc(OCC(=N/NC(=O)c2ccncc2)/N=C/c2ccncc2)cc1
inactive: NCI-H23 > 100 µM | DU-145 > 100 µM | PC-3 > 100 µM | HOP-62 71.8 µM | A498 59.3 µM | SNB-19 > 100 µM | RPMI-8226 40.7 µM | HT-29 57 µM | NCI/ADR-RES 77.6 µM | RXF 393 36.3 µM | TK-10 > 100 µM | MOLT-4 90.2 µM | COLO 205 74 µM | IGROV-1 91.2 µM | OVCAR-4 > 100 µM | HCC 2998 > 100 µM | BT-549 > 100 µM

CCN(CC(=O)O)CC(=O)O
inactive: NCI-H23 > 100 µM | DU-145 > 100 µM | PC-3 > 100 µM | HOP-62 > 100 µM | A498 > 100 µM | SNB-19 > 100 µM | RPMI-8226 > 100 µM | HT-29 > 100 µM | SNB-75 > 100 µM | NCI/ADR-RES > 100 µM | RXF 393 > 100 µM | TK-10 > 100 µM | MOLT-4 > 100 µM | COLO 205 > 100 µM | IGROV-1 > 100 µM | OVCAR-4 > 100 µM | HCC 2998 > 100 µM | BT-549 > 100 µM

Reference: ChEMBL document CHEMBL1201862, “PubChem BioAssay data set” (2004)
